Measured values: ChEMBL document CHEMBL3885861, “Open TG-GATES”

Organism: Rattus norvegicus
Test: Open TG-GATES - Regimen: Single
Assay type: toxicity, organism-based, Sprague-Dawley
Parameters: regimen Single, gender Male, age 6 weeks
Settings: in vivo, iv, route intravenous injection; for APTT / Bas / Eos / Fbg / Lym / MCHC / MCV / Mono / Neu / Plat / RBC / Ret / WBC / Ht / PT / Hb / MCH: tissue Blood; for KIDNEY_L / KIDNEY_R / KIDNEY_TOTAL: tissue Kidney; for LIVER: tissue Liver
[1] = 0 mg/kg, 3 h, dose level Control
[2] = 0 mg/kg, 3 h, tissue Plasma, dose level Control
[3] = 0 mg/kg, 6 h, dose level Control
[4] = 0 mg/kg, 6 h, tissue Plasma, dose level Control
[5] = 0 mg/kg, 9 h, dose level Control
[6] = 0 mg/kg, 9 h, tissue Plasma, dose level Control
[7] = 0 mg/kg, 24 h, dose level Control
[8] = 0 mg/kg, 24 h, tissue Plasma, dose level Control
[9] = 10 mg/kg, 3 h, tissue Plasma, dose level Low
[10] = 10 mg/kg, 6 h, tissue Plasma, dose level Low
[11] = 10 mg/kg, 9 h, tissue Plasma, dose level Low
[12] = 10 mg/kg, 24 h, tissue Plasma, dose level Low
[13] = 30 mg/kg, 3 h, dose level Middle

## GENTAMICIN
[1]
  TERMINAL_BW: 212.9 g
  APTT: 22 s
  Bas: 0%
  Eos: 0.8%
  Fbg: 293.2 mg/dL
  Lym: 79.6%
  MCHC: 33.9%
  MCV: 61.4 fL
  Mono: 2.8%
  Neu: 16%
  Plat: 119.4 x10_4/uL
  RBC: 631.2 x10_4/ul
  Ret: 6.4%
  WBC: 123.3 x10_2/uL
  KIDNEY_L: 0.9 g
  KIDNEY_R: 0.9 g
  KIDNEY_TOTAL: 1.9 g
  LIVER: 9.3 g
[2]
  ALP: 1296.6 IU/L
  ALT: 39.2 IU/L
  AST: 70.6 IU/L
  CRE: 0.2 mg/dL
  DBIL: 0 mg/dL
  GLC: 187.4 mg/dL
  IP: 7.4 mg/dL
  K: 4.4 meq/L
  LDH: 165.6 IU/L
  PL: 121.4 mg/dL
  RALB: 2.9 g/dL
  TBIL: 0.022 mg/dL
  TC: 63.6 mg/dL
  TG: 71 mg/dL
  TP: 5.3 g/dL
  gamma-GTP: 1.2 IU/L
[3]
  TERMINAL_BW: 209.6 g
  APTT: 23.6 s
  Bas: 0%
  Eos: 0.6%
  Fbg: 270.6 mg/dL
  Ht: 39.7%
  MCHC: 33.6%
  Mono: 2.6%
  PT: 16.4 s
  Plat: 119.5 x10_4/uL
  RBC: 629 x10_4/ul
  Ret: 7%
  WBC: 123.2 x10_2/uL
  KIDNEY_L: 0.9 g
  KIDNEY_R: 0.9 g
  KIDNEY_TOTAL: 1.8 g
  LIVER: 8.7 g
[4]
  ALP: 1253 IU/L
  ALT: 36.6 IU/L
  AST: 70.2 IU/L
  BUN: 11.2 mg/dL
  CRE: 0.2 mg/dL
  DBIL: 0 mg/dL
  IP: 8.3 mg/dL
  K: 4.4 meq/L
  LDH: 199.6 IU/L
  RALB: 2.9 g/dL
  TBIL: 0.018 mg/dL
  TC: 74 mg/dL
  TG: 75 mg/dL
  TP: 5.3 g/dL
  gamma-GTP: 1.2 IU/L
[5]
  APTT: 22.8 s
  Bas: 0%
  Eos: 1%
  Fbg: 313.6 mg/dL
  Hb: 12.9 g/dL
  Ht: 38.5%
  Lym: 82%
  MCHC: 33.5%
  MCV: 61.2 fL
  Mono: 2.6%
  PT: 16 s
  Plat: 124.4 x10_4/uL
  RBC: 628 x10_4/ul
  Ret: 6.9%
  WBC: 82.5 x10_2/uL
  KIDNEY_L: 0.9 g
  KIDNEY_R: 0.9 g
  KIDNEY_TOTAL: 1.8 g
  LIVER: 8.3 g
[6]
  ALP: 1527.6 IU/L
  ALT: 36.4 IU/L
  AST: 67.4 IU/L
  CRE: 0.2 mg/dL
  DBIL: 0 mg/dL
  GLC: 199.2 mg/dL
  IP: 9.5 mg/dL
  K: 4.1 meq/L
  LDH: 131.6 IU/L
  PL: 126.2 mg/dL
  RALB: 2.9 g/dL
  TBIL: 0.022 mg/dL
  TG: 38.2 mg/dL
  TP: 5.4 g/dL
  gamma-GTP: 1.2 IU/L
[7]
  TERMINAL_BW: 228.2 g
  APTT: 23.4 s
  Bas: 0%
  Eos: 1%
  Fbg: 293.6 mg/dL
  Ht: 38.2%
  MCHC: 34.3%
  MCV: 61.9 fL
  Mono: 2.6%
  Neu: 16%
  Plat: 125.4 x10_4/uL
  RBC: 618.6 x10_4/ul
  Ret: 5.8%
  WBC: 109.8 x10_2/uL
  KIDNEY_L: 1 g
  KIDNEY_R: 1 g
  KIDNEY_TOTAL: 2 g
[8]
  ALP: 1416.8 IU/L
  AST: 71.6 IU/L
  BUN: 15 mg/dL
  CRE: 0.2 mg/dL
  DBIL: 0 mg/dL
  IP: 6.9 mg/dL
  K: 4.4 meq/L
  LDH: 156.8 IU/L
  Na: 140.4 meq/L
  PL: 138.2 mg/dL
  RALB: 3 g/dL
  TBIL: 0.012 mg/dL
  TC: 68.4 mg/dL
  TG: 114.4 mg/dL
  TP: 5.4 g/dL
  gamma-GTP: 1.4 IU/L
10 mg/kg, 3 h, dose level Low
  TERMINAL_BW: 211.7 g
  APTT: 22.2 s
  Bas: 0%
  Eos: 0.2%
  Fbg: 301.8 mg/dL
  Hb: 13 g/dL
  Ht: 38.1%
  Lym: 78.8%
  MCH: 21.8 pg
  MCHC: 34.1%
  MCV: 64 fL
  Mono: 3%
  Neu: 17%
  PT: 16.2 s
  Plat: 121.8 x10_4/uL
  RBC: 595.2 x10_4/ul
  Ret: 7.2%
  WBC: 114 x10_2/uL
  KIDNEY_L: 0.9 g
  KIDNEY_R: 1 g
  KIDNEY_TOTAL: 1.9 g
  LIVER: 9.7 g
[9]
  ALP: 1674.8 IU/L
  ALT: 40.6 IU/L
  AST: 72.8 IU/L
  CRE: 0.2 mg/dL
  DBIL: 0.002 mg/dL
  GLC: 181.2 mg/dL
  IP: 7.8 mg/dL
  K: 4.2 meq/L
  LDH: 188 IU/L
  PL: 131.8 mg/dL
  RALB: 2.9 g/dL
  TBIL: 0.018 mg/dL
  TC: 66.6 mg/dL
  TG: 91.4 mg/dL
  TP: 5.3 g/dL
  gamma-GTP: 1.4 IU/L
10 mg/kg, 6 h, dose level Low
  TERMINAL_BW: 207.8 g
  APTT: 23.6 s
  Bas: 0%
  Eos: 0.8%
  Fbg: 282.6 mg/dL
  Ht: 39.5%
  Lym: 83%
  MCH: 21 pg
  Mono: 2.8%
  PT: 15.9 s
  Plat: 131.7 x10_4/uL
  RBC: 634.2 x10_4/ul
  Ret: 6.8%
  WBC: 102.7 x10_2/uL
  KIDNEY_L: 0.9 g
  KIDNEY_R: 0.9 g
  KIDNEY_TOTAL: 1.8 g
  LIVER: 8.7 g
[10]
  ALP: 1173 IU/L
  ALT: 36.4 IU/L
  AST: 68.8 IU/L
  CRE: 0.2 mg/dL
  DBIL: 0.002 mg/dL
  GLC: 175 mg/dL
  IP: 9.1 mg/dL
  K: 4.3 meq/L
  LDH: 216.2 IU/L
  PL: 139.6 mg/dL
  RALB: 3 g/dL
  TBIL: 0.022 mg/dL
  TC: 77.6 mg/dL
  TG: 74.8 mg/dL
  TP: 5.4 g/dL
  gamma-GTP: 1.6 IU/L
10 mg/kg, 9 h, dose level Low
  TERMINAL_BW: 208.7 g
  APTT: 23.8 s
  Bas: 0%
  Eos: 0.8%
  Fbg: 317.6 mg/dL
  Ht: 39.5%
  Lym: 80.6%
  MCHC: 33.4%
  Mono: 3.2%
  PT: 16.2 s
  Plat: 125.8 x10_4/uL
  RBC: 642.4 x10_4/ul
  Ret: 6.1%
  WBC: 90.1 x10_2/uL
  KIDNEY_L: 1 g
  KIDNEY_R: 1 g
  KIDNEY_TOTAL: 1.9 g
  LIVER: 8.2 g
[11]
  ALP: 1357 IU/L
  AST: 66.4 IU/L
  BUN: 11 mg/dL
  CRE: 0.1 mg/dL
  DBIL: 0.004 mg/dL
  GLC: 180.6 mg/dL
  IP: 8.9 mg/dL
  K: 4.2 meq/L
  LDH: 120.2 IU/L
  PL: 128 mg/dL
  RALB: 3 g/dL
  TBIL: 0.026 mg/dL
  TC: 69 mg/dL
  TG: 56 mg/dL
  TP: 5.4 g/dL
  gamma-GTP: 1 IU/L
10 mg/kg, 24 h, dose level Low
  TERMINAL_BW: 226 g
  APTT: 23.6 s
  Bas: 0%
  Eos: 0.8%
  Fbg: 300.6 mg/dL
  Ht: 38.7%
  Lym: 80.4%
  MCHC: 34%
  MCV: 61.6 fL
  Mono: 3.2%
  Plat: 126.1 x10_4/uL
  RBC: 628.8 x10_4/ul
  Ret: 6.2%
  WBC: 119.3 x10_2/uL
  KIDNEY_L: 1 g
  KIDNEY_R: 1 g
  KIDNEY_TOTAL: 1.9 g
  LIVER: 10.2 g
[12]
  ALP: 1490.2 IU/L
  ALT: 37.8 IU/L
  AST: 68.2 IU/L
  BUN: 16.6 mg/dL
  CRE: 0.2 mg/dL
  DBIL: 0 mg/dL
  IP: 6.4 mg/dL
  K: 4.5 meq/L
  LDH: 171.6 IU/L
  PL: 139.2 mg/dL
  RALB: 2.9 g/dL
  TBIL: 0.01 mg/dL
  TC: 69.4 mg/dL
  TG: 100 mg/dL
  TP: 5.4 g/dL
  gamma-GTP: 1.2 IU/L
[13]
  TERMINAL_BW: 214 g
  APTT: 23.2 s
  Bas: 0%
  Eos: 1%
  Fbg: 287.4 mg/dL
  Ht: 39.3%
  Lym: 79%
  MCHC: 34%
